Laboratory results taken from paper PMC11483813, “Bombesin-Targeted Delivery of β-Carboline-Based Ir(III) and Ru(II) Photosensitizers for a Selective Photodynamic Therapy of Prostate Cancer” (Inorganic Chemistry, 2024).
Where “and” joins values, the source holds several entries; their conditions need not be identical. Equal entries are not always repeated.

Columns and labels:
[1] = Emission and photophysical properties; type: physicochemical; settings: H2O:DMSO (99:1), 25 °C, nitrogen atmosphere; for λem: λex 405 nm (Ir) or 450 nm (Ru)
Procedure: The emission spectra of the metal complexes in deoxygenated solutions of H2O:DMSO (99:1, v:v, 10^–5 M) were recorded at 25 °C, using λex of 405 nm for Ir-Me/Ir-H and λex of 450 nm for Ru-Me/Ru-H (Figure 3). […] Moreover, Ir-Me/Ru-Me featured lower emission intensities compared to Ir-H/Ru-H, respectively.
The excited state lifetimes (τ) and the photoluminescence quantum yields were also determined for the new metal complexes (Table 2). […] These values compare well with those of similar complexes and are compatible with a triplet nature for the emissive states. The photoluminescence quantum yields (ΦPL) of Ir(III)/Ru(II) were very low with values ranging from 1.1 to 4.13%.
All synthetic manipulations for Ir(III) and Ru(II) complexes were carried out under an atmosphere of dry, oxygen-free nitrogen using standard Schlenk techniques. The solvents were dried and distilled under a nitrogen atmosphere before use. Elemental analyses were performed with a Thermo Fisher Scientific EA Flash 2000 Elemental Microanalyzer. UV–vis absorption was measured in a Jasco V-750 UV–visible spectrophotometer. Fluorescence steady-state and lifetime measurements were performed in an FLS980 (Edinburgh Instruments) fluorimeter with Xenon Arc Lamp 450 W and TCSPC laser, respectively. Photoluminescence quantum yields was determined by using FLS980 (Edinburgh Instruments) with Xenon Arc Lamp 450 W and Red PMT Sphere as a detector. HR-ESI(+) mass spectra were recorded with an Agilent LC-MS system (1260 Infinity LC/6545 Q-TOF MS spectrometer) using dichloromethane (DCM) as a sample solvent and H2O (0.1% formic acid)/MeOH (0.1% formic acid) and 30:70 as the mobile phase. The experimental m/z values are expressed in Da and were compared with the m/z values for monoisotopic fragments. […] Chemical shift values (δ) are reported in ppm and coupling constants (J) in hertz. The splitting of proton resonances in the reported ^1H NMR data is defined as s = singlet, d = doublet, t = triplet, q = quartet, m = multiplet, and bs = broad singlet. 2D NMR spectra were recorded using standard pulse sequences. All NMR data processing was carried out using MestReNova version 10.0.2. […]
an integrating sphere. For the determination of the luminescence lifetime, the fluorescence decay was measured on a FLS980 spectrofluorometer equipped with a TSCPC laser (Ir(III) complexes: λ ex = 405 nm; Ru(II) complexes: λ ex = 450 nm) and a REDPMT detector. The F980 spectrometer operating software was used to collect and process luminescence lifetime data. […]
Photocatalytic oxidation of NADH. […]
A decrease in the absorption band with maxima at 338 nm was considered to confirm the photocatalytic oxidation of NADH into NAD+. […]
Both phases were then separated. Next, approximately 0.1 mg of the corresponding photosensitizer was dissolved in 1 mL of PBS-saturated n-octanol. Subsequently, 1 mL of octanol-saturated PBS was added, and the mixture was stirred vigorously at room temperature for 24 h. The two layers were separated carefully, and the absorbance of each layer was determined at the respective local maximum located around 425 nm. The log P oct/PBS values were determined as follows: […]

[2] = n-octanol/PBS partition coefficient, shake flask; type: physicochemical; settings: UV/vis
Procedure: First, the n-octanol/PBS partition coefficient values, log Poct/PBS, of the metal PSs were experimentally determined to quantify their lipophilicity (Figure S56). Indeed, the shake flask method was employed, and the metal content was measured in both phases by UV/vis spectroscopy. […]
an integrating sphere. For the determination of the luminescence lifetime, the fluorescence decay was measured on a FLS980 spectrofluorometer equipped with a TSCPC laser (Ir(III) complexes: λ ex = 405 nm; Ru(II) complexes: λ ex = 450 nm) and a REDPMT detector. The F980 spectrometer operating software was used to collect and process luminescence lifetime data.
Photostability of Ir(III) and Ru(II) complexes. The photostability of Ir(III) or Ru(II) complexes was monitored by 1H RMN. The 1.5 × 10−2 M solutions of the complexes in DMSO-d6:D2O (3:2) at 25 °C were irradiated with blue LED light (λ irr = 460 nm, 24 W) for different intervals of time. […]
Singlet oxygen generation. The capacity of Ir-Me and Ru-Me to generate singlet oxygen ( 1O2) was determined by an indirect method using 9,10-anthracenediyl-bis(methylene) dimalonic acid (ABDA) as a probe. The reaction between ABDA and 1O2 was monitored by UV-Vis and the gradual decrease of the maximum at 379 nm was used to quantify the ability of our complexes to generate 1O2. Aerated solutions of ABDA (8 × 10^-5 M) and the corresponding PS in H2O:DMSO (50:50) were irradiated with a blue LED strip (λ ir = 460 nm; 24 W) at room temperature for intervals of 5 minutes (0 min → 100 min) and UV-Vis spectra were recorded after every irradiation interval. Concentrations of PS were tuned to achieve similar values of absorbance at 460 nm (A460 nm ≈ 0.06). The singlet oxygen quantum yield (φ) was determined using Rose Bengal (RB) as standard reference (φ Δ = 0.75)6 and the following equation:7 […]
where kPS and kRB represent the decomposition rate constants of the photobleaching of ABDA determined by the slope calculated from the linear fit of ln(A 0/A) vs time. […]
Determination of Lipophilicity. […] The log P oct/PBS values were determined as follows: […]

ΦPL [1] [%] | τ [contribution (%)], first or only component [1] | λem [1] [nm] | log Poct/PBS [2] | τ [contribution (%)], second component [1] | SMILES
3.13 | 186 ns | 688 | −1.10 | – | Cn1c2ccccc2c2ccnc(-c3ccc(/C=C/C(=O)O)cn3)c21.[Cl-].[Cl-].[Ru+2].c1ccc(-c2ccccn2)nc1.c1ccc(-c2ccccn2)nc1 [Ru-H]
3.50 | 2 ns and 2 [20] ns | 676 | 2.03 | 93 ns and 93 [80] ns | COC(=O)/C=C/c1ccc(-c2nccc3c4ccccc4n(C)c23)nc1.[Cl-].[Ir+3].[c-]1ccccc1-c1ccccn1.[c-]1ccccc1-c1ccccn1 [Ir-Me]
4.13 | 23 ns and 23 [51] ns | 651 | 1.80 | 145 ns and 145 [49] ns | Cn1c2ccccc2c2ccnc(-c3ccc(/C=C/C(=O)O)cn3)c21.[Cl-].[Ir+3].[c-]1ccccc1-c1ccccn1.[c-]1ccccc1-c1ccccn1 [Ir-H]
